# Patent publication US10842152B2, “Isothiazolo-based bicycles, processes for their preparation and their use as herbicides and/or plant growth regulators” (Bayer CropScience Aktiengesellschaft, priority 2017, dated 2020)
# Tests used:
# MATIN [1] = assay: Herbicidal effect pre-emergence; type: in vivo, Matricaria inodora; conditions: 320 g/ha, visual grading after ca. 3 weeks vs untreated controls
# Source text: (§1) Seeds of mono- and dicotyledonous weed plants and crop plants are sown in wood-fiber pots in sandy loam and covered with soil. The compounds according to the invention, formulated in the form of wettable powders (WP) or as emulsifiable concentrates (EC), are then applied to the surface of the covering soil as aqueous suspension or emulsion, with the addition of 0.5% of an additive, at an application rate of 600 l of water/ha (converted).
# (§2) Following treatment, the pots are placed in a greenhouse and kept under optimum growth conditions for the test plants. The visual grading of the damage to the test plants is carried out after ca. 3 weeks in comparison to untreated controls (herbicidal effect in percent (%): 100% effect=plants have died off, 0% effect=as control plants).
# Amaranthus retroflexus [2] = assay: Herbicidal effect pre-emergence; type: in vivo; conditions: 320 g/ha, visual grading after ca. 3 weeks vs untreated controls
# Source text: (§3) Herbicidal activities of the compounds of the formulae (G1) or (G2) according to the invention were investigated against the following harmful plants: • ALOMY=Alopecurus myosuroides • ECHCG=Echinochloa crus-galli • SETVI=Setaria viridis • ABUTH=Abutilon theophrasti • AMARE=Amaranthus retroflexus • PHBPU=Pharbitis purpurea • POLCO=Polygonum convolvulus (=Fallopia convolvulus) • STEME=Stellaria media • VIOTR=Viola tricolor
# as §1, §2
# Stellaria media [3] = assay: Herbicidal effect pre-emergence; type: in vivo; conditions: 320 g/ha, visual grading after ca. 3 weeks vs untreated controls
# Source text: as §3, §1, §2
# Alopecurus myosuroides = assay: Herbicidal effect pre-emergence; type: in vivo; conditions: 320 g/ha, visual grading after ca. 3 weeks vs untreated controls
# Source text: as §3, §1, §2
# Setaria viridis [4] = assay: Herbicidal effect pre-emergence; type: in vivo; conditions: 320 g/ha, visual grading after ca. 3 weeks vs untreated controls
# Source text: as §3, §1, §2
# Viola tricolor [5] = assay: Herbicidal effect pre-emergence; type: in vivo; conditions: 320 g/ha, visual grading after ca. 3 weeks vs untreated controls
# Source text: as §3, §1, §2
# MATIN [6] = assay: Herbicidal effect post-emergence; type: in vivo, Matricaria inodora; conditions: 320 g/ha, visual grading after ca. 3 weeks (Table 7)
# Source text: (§4) Seeds of mono- and dicotyledonous weed plants and crop plants are sown in wood-fiber pots in sandy loam, covered with soil and grown in a greenhouse under controlled growth conditions. 2 to 3 weeks after sowing, the test plants are sprayed in the single-leaf stage. The compounds according to the invention, formulated in form of wettable powders (WP) or as emulsifiable concentrates (EC), are then sprayed onto the green plant parts as aqueous suspension or emulsion, with the addition of 0.5% of an additive, at an application rate of 600 l of water/ha (converted). After the test plants had been in the greenhouse for ca. 3 weeks under optimum growth conditions, the effect of the preparations is assessed visually in comparison with untreated controls (herbicidal effect in percent (%): 100% effect=plants have died off, 0% effect=as control plants).
# Amaranthus retroflexus [7] = assay: Herbicidal effect post-emergence; type: in vivo; conditions: 320 g/ha
# Source text: as §3, §4
# Stellaria media [8] = assay: Herbicidal effect post-emergence; type: in vivo; conditions: 320 g/ha, visual grading after ca. 3 weeks (Table 7)
# Source text: as §3, §4
# Pharbitis purpurea = assay: Herbicidal effect post-emergence; type: in vivo; conditions: 320 g/ha, visual grading after ca. 3 weeks (Table 7)
# Source text: as §3, §4
# [9] = test system: Polygonum convolvulus (=Fallopia convolvulus); assay: Herbicidal effect post-emergence; type: in vivo; conditions: 320 g/ha, visual grading after ca. 3 weeks (Table 7)
# Source text: as §3, §4
# Setaria viridis [10] = assay: Herbicidal effect post-emergence; type: in vivo; conditions: 320 g/ha
# Source text: as §3, §4
# Viola tricolor [11] = assay: Herbicidal effect post-emergence; type: in vivo; conditions: 320 g/ha
# Source text: as §3, §4
# [12] = visual grading after ca. 3 weeks (Table 7)
# [13] = visual grading after ca. 3 weeks (Table 9)
Structure (SMILES),herbicidal effect MATIN (MATIN [1]) [%],herbicidal effect AMARE (Amaranthus retroflexus [2]) [%],herbicidal effect STEME (Stellaria media [3]) [%],herbicidal effect ALOMY (Alopecurus myosuroides) [%],herbicidal effect SETVI (Setaria viridis [4]) [%],herbicidal effect VIOTR (Viola tricolor [5]) [%],herbicidal effect MATIN (MATIN [6]) [%],herbicidal effect AMARE (Amaranthus retroflexus [7]; [12]) [%],herbicidal effect STEME (Stellaria media [8]) [%],herbicidal effect PHBPU (Pharbitis purpurea) [%],herbicidal effect POLCO [9] [%],herbicidal effect SETVI (Setaria viridis [10]; [12]) [%],herbicidal effect VIOTR (Viola tricolor [11]; [12]) [%],herbicidal effect AMARE (Amaranthus retroflexus [7]; [13]) [%],herbicidal effect SETVI (Setaria viridis [10]; [13]) [%],herbicidal effect VIOTR (Viola tricolor [11]; [13]) [%]
Nc1nsc2c(=O)n(CC3CCCCC3Cl)cc(Cl)c12 (racemic) [Example I-156],100,100,100,100,100,100,80,100,100,100,100,100,100,,,
O=C(Nc1nsc2c(=O)n(CC3CCCCC3Cl)cc(Cl)c12)C(F)F (racemic) [Example I-160],100,100,100,100,100,100,80,100,100,100,100,100,100,,,
O=C(Nc1nsc2c(=O)n(CC3CCCCC3Cl)cc(Cl)c12)C(F)(F)C(F)(F)F (racemic) [Example I-161],100,100,100,100,100,100,80,100,100,100,100,100,100,,,
O=C(Nc1nsc2c(=O)n(CC3CCCCC3Cl)cc(Cl)c12)C(F)(F)F (racemic) [Example I-171],100,100,100,100,100,100,90,100,100,100,100,100,100,,,
Nc1nsc2c(=O)n(CC3CCCCC3)cc(Cl)c12 [Example I-064],100,100,100,100,100,100,100,100,100,100,100,100,100,,,
O=C(Nc1nsc2c(=O)n(CC3CCCCC3)cc(Cl)c12)C(F)(F)C(F)(F)F [Example I-081],100,100,100,100,100,100,,,,,,,,100,100,100
O=C(Nc1nsc2c(=O)n(CC3CCCCC3)cc(Cl)c12)C(F)(F)F [Example I-086],100,100,100,100,100,100,,,,,,,,100,100,100
O=C(Nc1nsc2c(=O)n(CC3CCCCC3)cc(Br)c12)C(F)(F)F [Example I-088],100,100,100,100,100,100,,,,,,,,100,100,100
O=C(Nc1nsc2c(=O)n(CC3CCCCC3)cc(F)c12)C(F)(F)C(F)(F)F [Example I-127],100,100,100,100,100,100,100,100,100,100,100,100,100,,,
CCC(=O)Nc1nsc2c(=O)n(CC3CCCCC3)cc(F)c12 [Example I-128],100,100,100,100,100,100,100,100,100,100,100,100,100,,,
Nc1nsc2c(=O)n(Cc3cc(F)c(F)cc3F)cc(Cl)c12 [Example I-136],90,100,100,100,100,100,100,100,100,100,100,90,100,,,
CC(C)(C)OC(=O)OC1CN(CC2CCCCC2)C(=O)c2snc(N)c21 (centres unmarked) [Example I-138],90,100,100,100,100,100,,,,,,,,100,80,100
